# Measured values taken from article PMC9481151, “Discovery of new symmetrical and asymmetrical nitrile-containing 1,4-dihydropyridine derivatives as dual kinases and P-glycoprotein inhibitors: synthesis, in vitro assays, and in silico studies” (Journal of Enzyme Inhibition and Medicinal Chemistry, 2022).
# Tests used:
# T-47D = assay: NCI single dose (10 µM) SRB screen; format: cell-based, human; settings: breast cancer, 48 h
# M14 = assay: NCI single dose (10 µM) SRB screen; format: cell-based, human; settings: melanoma, 48 h
# UACC-257 = assay: NCI single dose (10 µM) SRB screen; format: cell-based, human; settings: melanoma, 48 h
# MALME-3M = assay: NCI single dose (10 µM) SRB screen; format: cell-based, human; settings: melanoma, 48 h
# KM12 = assay: NCI single dose (10 µM) SRB screen; format: cell-based, human; settings: colon cancer, 48 h
# HCC-2998 = assay: NCI single dose (10 µM) SRB screen; format: cell-based, human; settings: colon cancer, 48 h
# HCT-15 = assay: NCI single dose (10 µM) SRB screen; format: cell-based, human; settings: colon cancer, 48 h
# Bacillus subtilis = assay: Agar well diffusion method; settings: relative to ciprofloxacin
# MOLT-4 = assay: NCI single dose (10 µM) SRB screen; format: cell-based, human; settings: leukaemia, 48 h
# EKVX = assay: NCI single dose (10 µM) SRB screen; format: cell-based, human; settings: non-small cell lung cancer, 48 h
# BT-549 = assay: NCI single dose (10 µM) SRB screen; format: cell-based, human; settings: breast cancer, 48 h
# NCI-H322M = assay: NCI single dose (10 µM) SRB screen; format: cell-based; settings: non-small cell lung cancer, 48 h
# HOP-92 = assay: NCI single dose (10 µM) SRB screen; format: cell-based, human; settings: non-small cell lung cancer, 48 h
# LOX IMVI = assay: NCI single dose (10 µM) SRB screen; format: cell-based, human; settings: melanoma, 48 h
# K-562 = assay: NCI single dose (10 µM) SRB screen; format: cell-based, human; settings: leukaemia, 48 h
# RPMI-8226 = assay: NCI single dose (10 µM) SRB screen; format: cell-based, human; settings: leukaemia, 48 h
# MDA-MB-468 = assay: NCI single dose (10 µM) SRB screen; format: cell-based, human; settings: breast cancer, 48 h
# OVCAR-4 = assay: NCI single dose (10 µM) SRB screen; format: cell-based, human; settings: ovarian cancer, 48 h
# ACHN = assay: NCI single dose (10 µM) SRB screen; format: cell-based, human; settings: renal cancer, 48 h
# SN12C = assay: NCI single dose (10 µM) SRB screen; format: cell-based, human; settings: renal cancer, 48 h
# Escherichia coli = assay: Agar well diffusion method; settings: relative to ciprofloxacin
# NCI-H226 = assay: NCI single dose (10 µM) SRB screen; format: cell-based, human; settings: non-small cell lung cancer, 48 h
# DU-145 = assay: NCI single dose (10 µM) SRB screen; format: cell-based, human; settings: prostate cancer, 48 h
# SNB-19 = assay: NCI single dose (10 µM) SRB screen; format: cell-based, human; settings: CNS cancer, 48 h
# SF-539 = assay: NCI single dose (10 µM) SRB screen; format: cell-based, human; settings: CNS cancer, 48 h
# HL-60(TB) = assay: NCI single dose (10 µM) SRB screen; format: cell-based, human; settings: leukaemia, 48 h
# SK-MEL-5 = assay: NCI single dose (10 µM) SRB screen; format: cell-based, human; settings: melanoma, 48 h
# U251 = assay: NCI single dose (10 µM) SRB screen; format: cell-based, human; settings: CNS cancer, 48 h
# TK-10 = assay: NCI single dose (10 µM) SRB screen; format: cell-based, human; settings: renal cancer, 48 h
# Staphylococcus aureus = assay: Agar well diffusion method; settings: relative to ciprofloxacin
# NCI-H460 = assay: NCI single dose (10 µM) SRB screen; format: cell-based, human; settings: non-small cell lung cancer, 48 h
# UACC-62 = assay: NCI single dose (10 µM) SRB screen; format: cell-based, human; settings: melanoma, 48 h
# UO-31 = assay: NCI single dose (10 µM) SRB screen; format: cell-based, human; settings: renal cancer, 48 h
# PC-3 = assay: NCI single dose (10 µM) SRB screen; format: cell-based, human; settings: prostate cancer, 48 h
# NCI 60 cancer cell lines = assay: NCI single dose (10 µM) SRB screen, mean over panel; format: cell-based, human; settings: mean over 60 cell lines, 48 h
# MDA-MB-231 = assay: NCI single dose (10 µM) SRB screen; format: cell-based, human; settings: breast cancer, 48 h
# HCT-116 = assay: NCI single dose (10 µM) SRB screen; format: cell-based, human; settings: colon cancer, 48 h
# MCF7 = assay: NCI single dose (10 µM) SRB screen; format: cell-based, human; settings: breast cancer, 48 h
# OVCAR-5 = assay: NCI single dose (10 µM) SRB screen; format: cell-based, human; settings: ovarian cancer, 48 h
# HS578T = assay: NCI single dose (10 µM) SRB screen; format: cell-based, human; settings: breast cancer, 48 h
# Candida albicans = assay: Agar well diffusion method; settings: relative to clotrimazole
# IGROV1 = assay: NCI single dose (10 µM) SRB screen; format: cell-based, human; settings: ovarian cancer, 48 h
# RXF 393 = assay: NCI single dose (10 µM) SRB screen; format: cell-based, human; settings: renal cancer, 48 h
# SNB-75 = assay: NCI single dose (10 µM) SRB screen; format: cell-based, human; settings: CNS cancer, 48 h
# SW-620 = assay: NCI single dose (10 µM) SRB screen; format: cell-based, human; settings: colon cancer, 48 h
# SK-OV-3 = assay: NCI single dose (10 µM) SRB screen; format: cell-based, human; settings: ovarian cancer, 48 h
# CCRF-CEM = assay: NCI single dose (10 µM) SRB screen; format: cell-based, human; settings: leukaemia, 48 h
# CAKI-1 = assay: NCI single dose (10 µM) SRB screen; format: cell-based, human; settings: renal cancer, 48 h
# 786-0 = assay: NCI single dose (10 µM) SRB screen; format: cell-based, human; settings: renal cancer, 48 h
# HT29 = assay: NCI single dose (10 µM) SRB screen; format: cell-based, human; settings: colon cancer, 48 h
# Aspergillus flavus = assay: Agar well diffusion method; settings: relative to clotrimazole
# SR = assay: NCI single dose (10 µM) SRB screen; format: cell-based, human; settings: leukaemia, 48 h
# SK-MEL-28 = assay: NCI single dose (10 µM) SRB screen; format: cell-based, human; settings: melanoma, 48 h
# SF-268 = assay: NCI single dose (10 µM) SRB screen; format: cell-based, human; settings: CNS cancer, 48 h
# A549/ATCC = assay: NCI single dose (10 µM) SRB screen; format: cell-based, human; settings: non-small cell lung cancer, 48 h
# COLO 205 = assay: NCI single dose (10 µM) SRB screen; format: cell-based, human; settings: colon cancer, 48 h
# MDA-MB-435 = assay: NCI single dose (10 µM) SRB screen; format: cell-based, human; settings: melanoma, 48 h
# SF-295 = assay: NCI single dose (10 µM) SRB screen; format: cell-based, human; settings: CNS cancer, 48 h
# SK-MEL-2 = assay: NCI single dose (10 µM) SRB screen; format: cell-based, human; settings: melanoma, 48 h
# Pseudomonas aeruginosa = assay: Agar well diffusion method; settings: relative to ciprofloxacin
# OVCAR-3 = assay: NCI single dose (10 µM) SRB screen; format: cell-based, human; settings: ovarian cancer, 48 h
# OVCAR-8 = assay: NCI single dose (10 µM) SRB screen; format: cell-based, human; settings: ovarian cancer, 48 h
# A498 = assay: NCI single dose (10 µM) SRB screen; format: cell-based, human; settings: renal cancer, 48 h
# NCI-H522 = assay: NCI single dose (10 µM) SRB screen; format: cell-based, human; settings: non-small cell lung cancer, 48 h
# HOP-62 = assay: NCI single dose (10 µM) SRB screen; format: cell-based, human; settings: non-small cell lung cancer, 48 h
# NCI-H23 = assay: NCI single dose (10 µM) SRB screen; format: cell-based, human; settings: non-small cell lung cancer, 48 h
# NCI/ADR-RES = assay: NCI single dose (10 µM) SRB screen; format: cell-based, human; settings: ovarian cancer, 48 h
smiles,measurement,setting,value
"CCOC(=O)C1=C(C)NC(C)=C(C(=O)OCC(C)C)C1c1cccc(C#N)c1 (racemic) [Compound 2i, (±)-3-Ethyl 5-isobutyl 4-(3-cyanophenyl)-2,6-dimethyl-1,4-dihydropyridine-3,5-dicarboxylate]",GI% T-47D,T-47D,32%
same,GI% M14,M14,– (Only GI% ≥ 10 are shown)
same,GI% UACC-257,UACC-257,– (Only GI% ≥ 10 are shown)
same,GI% MALME-3M,MALME-3M,– (Only GI% ≥ 10 are shown)
same,GI% KM12,KM12,– (Only GI% ≥ 10 are shown)
same,GI% HCC-2998,HCC-2998,– (Only GI% ≥ 10 are shown)
same,GI% HCT-15,HCT-15,30%
same,"% activity index, B. subtilis",Bacillus subtilis,– (Values below 25 are of limited value and not shown as they refer either to inactive or non-diffusing compounds)
same,GI% MOLT-4,MOLT-4,21%
same,GI% EKVX,EKVX,29%
same,GI% BT-549,BT-549,– (Only GI% ≥ 10 are shown)
same,GI% NCI-H322M,NCI-H322M,– (Only GI% ≥ 10 are shown)
same,GI% HOP-92,HOP-92,18%
same,GI% LOX IMVI,LOX IMVI,20%
same,GI% K-562,K-562,24%
same,GI% RPMI-8226,RPMI-8226,– (Only GI% ≥ 10 are shown)
same,GI% MDA-MB-468,MDA-MB-468,24%
same,GI% OVCAR-4,OVCAR-4,12%
same,GI% ACHN,ACHN,– (Only GI% ≥ 10 are shown)
same,GI% SN12C,SN12C,– (Only GI% ≥ 10 are shown)
same,"% activity index, E. coli",Escherichia coli,– (Values below 25 are of limited value and not shown as they refer either to inactive or non-diffusing compounds)
same,melting point,,120 to 121 °C
same,GI% NCI-H226,NCI-H226,22%
same,GI% DU-145,DU-145,– (Only GI% ≥ 10 are shown)
same,GI% SNB-19,SNB-19,– (Only GI% ≥ 10 are shown)
same,GI% SF-539,SF-539,– (Only GI% ≥ 10 are shown)
same,GI% HL-60(TB),HL-60(TB),– (Only GI% ≥ 10 are shown)
same,GI% SK-MEL-5,SK-MEL-5,12%
same,GI% U251,U251,– (Only GI% ≥ 10 are shown)
same,GI% TK-10,TK-10,– (Only GI% ≥ 10 are shown)
same,"% activity index, S. aureus",Staphylococcus aureus,– (Values below 25 are of limited value and not shown as they refer either to inactive or non-diffusing compounds)
same,GI% NCI-H460,NCI-H460,– (Only GI% ≥ 10 are shown)
same,GI% UACC-62,UACC-62,27%
same,GI% UO-31,UO-31,– (Only GI% ≥ 10 are shown)
same,GI% PC-3,PC-3,29%
same,Mean GI%,NCI 60 cancer cell lines,9%
same,GI% MDA-MB-231,MDA-MB-231,– (Only GI% ≥ 10 are shown)
same,GI% HCT-116,HCT-116,23%
same,GI% MCF7,MCF7,34%
same,GI% OVCAR-5,OVCAR-5,– (Only GI% ≥ 10 are shown)
same,GI% HS578T,HS578T,13%
same,"% activity index, C. albicans",Candida albicans,– (Values below 25 are of limited value and not shown as they refer either to inactive or non-diffusing compounds)
same,GI% IGROV1,IGROV1,– (Only GI% ≥ 10 are shown)
same,GI% RXF 393,RXF 393,30%
same,GI% SNB-75,SNB-75,18%
same,GI% SW-620,SW-620,– (Only GI% ≥ 10 are shown)
same,GI% SK-OV-3,SK-OV-3,– (Only GI% ≥ 10 are shown)
same,GI% CCRF-CEM,CCRF-CEM,– (Only GI% ≥ 10 are shown)
same,GI% CAKI-1,CAKI-1,35%
same,GI% 786-0,786-0,11%
same,GI% HT29,HT29,– (Only GI% ≥ 10 are shown)
same,"% activity index, A. flavus",Aspergillus flavus,– (Values below 25 are of limited value and not shown as they refer either to inactive or non-diffusing compounds)
same,GI% SR,SR,23%
same,GI% SK-MEL-28,SK-MEL-28,– (Only GI% ≥ 10 are shown)
same,GI% SF-268,SF-268,– (Only GI% ≥ 10 are shown)
same,GI% A549/ATCC,A549/ATCC,10%
same,GI% COLO 205,COLO 205,– (Only GI% ≥ 10 are shown)
same,GI% MDA-MB-435,MDA-MB-435,– (Only GI% ≥ 10 are shown)
same,GI% SF-295,SF-295,31%
same,GI% SK-MEL-2,SK-MEL-2,– (Only GI% ≥ 10 are shown)
same,"% activity index, P. aeruginosa",Pseudomonas aeruginosa,– (Values below 25 are of limited value and not shown as they refer either to inactive or non-diffusing compounds)
same,GI% OVCAR-3,OVCAR-3,– (Only GI% ≥ 10 are shown)
same,GI% OVCAR-8,OVCAR-8,– (Only GI% ≥ 10 are shown)
same,GI% A498,A498,– (Only GI% ≥ 10 are shown)
same,GI% NCI-H522,NCI-H522,13%
same,GI% HOP-62,HOP-62,– (Only GI% ≥ 10 are shown)
same,GI% NCI-H23,NCI-H23,24%
same,GI% NCI/ADR-RES,NCI/ADR-RES,22%
